The conditions of data set [1]: cited from earlier work; for Rank order of topical activity: comparison between rac-BUD and its two epimers, Clissold et al.
The nature of data set [2]: Pharmacokinetic and metabolic profile / systemic exposure of the epimers. Format: in vivo. Conditions: studies carried out by the applicant.
Data set [3] in a line: Solubility in ethanol and ethanol/HFA mixtures. Format: physicochemical. Conditions: in ethanol and mixtures containing ethanol and HFA134a or ethanol and HFA227.
Data set [4] can be described thus: Chemical and physical stability in solution. Format: physicochemical. To be noted: solution formulations. The method, then:
In WO 00/30608 published on Jun.
In the same application, further 22R-BUD solution compositions in HFA 134a or 227 are described whose relevant respirable dose and the respirable fraction have been determined. In these compositions, the concentration of the active ingredient is comprised between 0.06% and 0.14% w/v equivalent to single doses of w 60, 63 and 70 μg, respectively. However, although said formulations give rise to good performances in term of respirable fraction due to the low amount of ethanol, the polarity of the whole solvent system constituted of 7-8% w/w of ethanol and 0.9% w/w of isopropyl myristate or PEG 400 is too low, leading to physical stability problem, i.e. partial precipitation of the active ingredient, after storage under stress conditions.

For data set [5] the following is noted: studies in the animals; Clissold et al. 1984, Edbäcker et al. 1987; cited from earlier work.
The conditions of data set [6]: Clissold et al. 1984, Edbäcker et al. 1987; cited from earlier work.
For data set [7] the following is noted: HFA propellant containing ethanol and optionally a low volatility component; inhalers with internal surface of stainless steel, anodized aluminum or epoxy phenol resin lining; WO 00/30608; cited from earlier work.

Turning to `CCCC1O[C@@H]2C[C@H]3[C@@H]4CCC5=CC(=O)C=C[C@]5(C)[C@H]4[C@@H](O)C[C@]3(C)[C@]2(C(=O)CO)O1` (mixture of isomers) [rac-BUD, Budesonide], the “Ratio of topical to systemic activity” value in data set [1] (compared with other corticosteroids) is recorded as “high ratio of topical to systemic activity”. For the same compound, the “Rank order of topical activity” value in data set [1] is on record as 22R >rac-BUD >22S.
As for `CCC[C@@H]1O[C@@H]2C[C@H]3[C@@H]4CCC5=CC(=O)C=C[C@]5(C)[C@H]4[C@@H](O)C[C@]3(C)[C@]2(C(=O)CO)O1` [Composition 22R-BUD, (22R)-budesonide], the “Systemic exposure versus corresponding epimer” value in data set [2] was “different from that of its corresponding epimer”. In addition, in data set [3], the “Solubility versus corresponding epimer” value is given as “significantly less soluble than its corresponding epimer”. Besides, the “Chemical degradation tendency versus corresponding epimer” value in data set [4] was “higher tendency to exhibit chemical degradation than its corresponding epimer”. The “Potency relative to the corresponding (22S) epimer” value in data set [5] is 2 to 3 times. Moreover, the “Rank order of topical activity” value in data set [1] is 22R >rac-BUD >22S. Moreover, the “Pharmacokinetic and metabolic profile versus (22S) epimer” value in data set [6] is “different pharmacokinetic and metabolic profile”. For the same compound, in data set [7], the Stability in solution entry is “stable in solution”.
For the compound `CCCC1OC2CC3C4CCC5=CC(=O)C=CC5(C)C4C(O)CC3(C)C2(C(=O)CO)O1` (stereo not shown) [Composition 22S], the “Rank order of topical activity” value in data set [1] is reported as 22R >rac-BUD >22S.
